# Activity calls are given as the source filed them. No cut-off for these calls is given here.
# Legend:
# Pseudomonas aeruginosa [1] = assay: Antimicrobial activity against Pseudomonas aeruginosa SG137/B7 at 50 ug after 24 hrs by paper disk method; type: functional, organism-based
# Escherichia coli = assay: Antimicrobial activity against Escherichia coli SG458 at 50 ug after 24 hrs by paper disk method; type: functional, organism-based
# [2] = test system: Sporobolomyces salmonicolor; assay: Antimicrobial activity against Sporobolomyces salmonicolor SBUG 549 at 50 ug after 24 hrs by paper disk method; type: functional, organism-based
# Candida albicans = assay: Antimicrobial activity against Candida albicans at 50 ug after 24 hrs by paper disk method; type: functional, organism-based
# Penicillium chrysogenum = assay: Antimicrobial activity against Penicillium notatum JP36 at 50 ug after 24 hrs by paper disk method; type: functional, organism-based
# Bacillus subtilis = assay: Antimicrobial activity against Bacillus subtilis ATCC 6633 at 50 ug after 24 hrs by paper disk method; type: functional; conditions: ATCC 6633, 24 h, read-out: IZ
# Mycolicibacterium vaccae = assay: Antimicrobial activity against Mycobacterium vaccae IMET 10670 at 50 ug after 24 hrs by paper disk method; type: functional; conditions: IMET 10670, 24 h, read-out: IZ
# Pseudomonas aeruginosa [3] = assay: Antimicrobial activity against Pseudomonas aeruginosa K799/61 at 50 ug after 24 hrs by paper disk method; type: functional; conditions: K799/61, 24 h, read-out: IZ
# Staphylococcus aureus [4] = assay: Antimicrobial activity against Staphylococcus aureus SG 511 at 50 ug after 24 hrs by paper disk method; type: functional; conditions: SG 511, 24 h, read-out: IZ
# Staphylococcus aureus [5] = assay: Antimicrobial activity against Staphylococcus aureus 134/94 R9 at 50 ug after 24 hrs by paper disk method; type: functional; conditions: 134/94 R9, 24 h, read-out: IZ
# Enterococcus faecalis = assay: Antimicrobial activity against Enterococcus faecalis 1528 R10 at 50 ug after 24 hrs by paper disk method; type: functional; conditions: 1528 R10, 24 h, read-out: IZ
# HT-29 = assay: Antitumor activity against human HT-29 by modified propidium iodide assay; type: functional, cell-based
# [6] = Antitumor activity against human GXF251L by modified propidium iodide assay; type: functional
# [7] = Antitumor activity against human LXFA 629L by modified propidium iodide assay; type: functional
# [8] = Antitumor activity against human LXFL 529L by modified propidium iodide assay; type: functional
# [9] = Antitumor activity against human MAXF 401NL by modified propidium iodide assay; type: functional
# [10] = Antitumor activity against human MEXF 462NL by modified propidium iodide assay; type: functional
# [11] = Antitumor activity against human OVXF 899L by modified propidium iodide assay; type: functional
# [12] = Antitumor activity against human PAXF 1657L by modified propidium iodide assay; type: functional
# CWR22R = assay: Antitumor activity against human 22Rv1 by modified propidium iodide assay; type: functional, cell-based
# [13] = Antitumor activity against human PXF 1752L by modified propidium iodide assay; type: functional
# [14] = Antitumor activity against human RXF 486L by modified propidium iodide assay; type: functional
# [15] = Antitumor activity against human UXF 1138L by modified propidium iodide assay; type: functional
# [16] = test system: Human immunodeficiency virus 1; assay: Inhibition of HIV1 NL4-3 replication in CD4-CCR5 expressing human TZM-bl cells assessed as decrease in p24 antigen production; type: functional, organism-based
# L929 = assay: Antiproliferative activity against mouse L929 cells; type: functional
# K562 = assay: Antiproliferative activity against human K562 cells; type: functional
# HeLa = assay: Antiproliferative activity against human HeLa cells; type: functional
# [17] = test system: Human immunodeficiency virus 1; assay: Inhibition of HIV1 NL4-3 replication in CD4-CXCR4 expressing human TZM-bl cells assessed as decrease in p24 antigen production; type: functional, organism-based
IC50 (HT-29),IC50 [6],IC50 [7],IC50 [8],IC50 [9],IC50 [10],IC50 [11],IC50 [12],IC50 (CWR22R),SMILES,Activity (Pseudomonas aeruginosa [1]),Activity (Escherichia coli),Activity [2],Activity (Candida albicans),Activity (Penicillium chrysogenum),zone of inhibition at 50 µg/disc (Bacillus subtilis),zone of inhibition at 50 µg/disc (Mycolicibacterium vaccae),zone of inhibition at 50 µg/disc (Pseudomonas aeruginosa [3]),zone of inhibition at 50 µg/disc (Staphylococcus aureus [4]),zone of inhibition at 50 µg/disc (Staphylococcus aureus [5]),zone of inhibition at 50 µg/disc (Enterococcus faecalis),also measured
9.97 µM,7.63 µM,8.52 µM,10 µM,10.8 µM,9.62 µM,11.7 µM,12.4 µM,9.87 µM,COC(=O)[C@]1(C)[C@@H](O)CC[C@]2(C)c3cc4c(cc3CC[C@@H]12)[nH]c1ccccc14,inactive,inactive,inactive,inactive,Active,13.5 mm,14 mm,15 mm,15 mm,14 mm,12 mm,IC50 [13]: 12.8 µM; IC50 [14]: 11.1 µM; IC50 [15]: 8.54 µM
> 30 µM,30 µM,> 30 µM,> 30 µM,> 30 µM,> 30 µM,> 30 µM,> 30 µM,> 30 µM,C[C@@]1(C(=O)O)[C@@H](O)CC[C@]2(C)c3cc4c(cc3CC[C@@H]12)[nH]c1ccccc14 [XIAMYCIN],inactive,inactive,inactive,inactive,Active,13.5 mm,14 mm,15 mm,15 mm,14 mm,12 mm,inhibition [16]: Active; IC50 [13]: > 30 µM; IC50 [14]: > 30 µM; IC50 [15]: > 30 µM; GI50 (L929): 49.8 µg/mL; GI50 (K562): 36.7 µg/mL; CC50 (HeLa): 44.3 µg/mL; inhibition [17]: Active

# Reference: ChEMBL document CHEMBL1268922, “Xiamycin, a pentacyclic indolosesquiterpene with selective anti-HIV activity from a bacterial mangrove endophyte” (Bioorg Med Chem Lett, 2010)
